Measurements: patent US20120029187A1, “HALOALKYLSULFONANILIDE DERIVATIVE” (Nissan Chemical Industries, Ltd., priority 2009, published 2012)

Legend:
Assay type in all cases: in vivo
barnyardgrass [1] = assay: Test Example 2: herbicidal effects during the vegetation period under submerged conditions; conditions: treatment during the vegetation period under submerged conditions; dose 2.52 g/a
In short: (§1)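 Barnyardgrass, bulrush and ducksalad were co-sown in alluvial soil flooded to 4 cm and grown in a greenhouse at 25 to 30° C. At the 1- or 2-leaf stage, water-diluted emulsifiable concentrates went onto the water surface at set doses (g/a). Herbicidal effect was scored three weeks later on a graded scale.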

bulrush [2] = assay: as above; conditions: treatment during the vegetation period under submerged conditions; dose 2.52 g/a
In short: as §1

ducksalad [3] = assay: as above; conditions: treatment during the vegetation period under submerged conditions; dose 2.52 g/a
In short: as §1

barnyardgrass [4] = assay: Test Example 1: herbicidal effects in preemergence treatment under submerged conditions; conditions: dose 2.52 g/a
In short: (§2)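 Score 0–5 by mortality (5: ≥90%; 0: <5%), read 3 weeks post-application. Paddy-type cups: alluvial soil under 4 cm water, weeds seeded plus transplanted 2.5-leaf rice; diluted EC dosed onto water surface same day as sowing, g/a basis; greenhouse 25 to 30° C.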

bulrush [5] = assay: as above; conditions: dose 2.52 g/a
In short: as §2

ducksalad [6] = assay: as above; conditions: dose 2.52 g/a
In short: as §2

barnyardgrass [7] = assay: Test Example 3: herbicidal effects in soil treatment; conditions: dose 3.2 g/a
In short: (§3)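 Seeds were sown in sterilized diluvial soil and covered with about 1.5 cm of soil. Compounds, formulated as emulsifiable concentrates and diluted with water, were sprayed evenly over the soil surface at set doses in g/a. Herbicidal effect was scored on a rating scale three weeks later.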

giant foxtail [8] = assay: as above; conditions: dose 3.2 g/a
In short: as §3

water foxtail [9] = assay: as above; conditions: dose 3.2 g/a
In short: as §3

common chickweed [10] = assay: as above; conditions: dose 3.2 g/a
In short: as §3

beadstraw [11] = assay: as above; conditions: dose 3.2 g/a
In short: as §3

posumbu knotweed [12] = assay: as above; conditions: dose 3.2 g/a
In short: as §3

velvetleaf [13] = assay: as above; conditions: dose 3.2 g/a
In short: as §3

redroot pigweed [14] = assay: as above; conditions: dose 3.2 g/a
In short: as §3

common ragweed [15] = assay: as above; conditions: dose 3.2 g/a
In short: as §3

common lambsquater [16] = assay: as above; conditions: dose 3.2 g/a
In short: as §3

large crabgrass [17] = assay: as above; conditions: dose 3.2 g/a
In short: as §3

Italian ryegrass [18] = assay: as above; conditions: dose 3.2 g/a
In short: as §3

barnyardgrass [19] = assay: Test Example 4: herbicidal effect in foliage treatment; conditions: dose 3.2 g/a, three weeks after application
In short: (§4)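 Doses are given in grams per are of applied compound, sprayed as water-diluted emulsifiable concentrate onto foliage of 14-day-old plants grown at 25 to 30° C. Herbicidal activity was assessed visually on a rating scale after three weeks.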

giant foxtail [20] = assay: as above; conditions: dose 3.2 g/a, three weeks after application
In short: as §4

water foxtail [21] = assay: as above; conditions: dose 3.2 g/a, three weeks after application
In short: as §4

common chickweed [22] = assay: as above; conditions: dose 3.2 g/a, three weeks after application
In short: as §4

beadstraw [23] = assay: as above; conditions: dose 3.2 g/a, three weeks after application
In short: as §4

posumbu knotweed [24] = assay: as above; conditions: dose 3.2 g/a, three weeks after application
In short: as §4

velvetleaf [25] = assay: as above; conditions: dose 3.2 g/a, three weeks after application
In short: as §4

redroot pigweed [26] = assay: as above; conditions: dose 3.2 g/a, three weeks after application
In short: as §4

common ragweed [27] = assay: as above; conditions: dose 3.2 g/a, three weeks after application
In short: as §4

common lambsquater [28] = assay: as above; conditions: dose 3.2 g/a, three weeks after application
In short: as §4

large crabgrass [29] = assay: as above; conditions: dose 3.2 g/a, three weeks after application
In short: as §4

Italian ryegrass [30] = assay: as above; conditions: dose 3.2 g/a, three weeks after application
In short: as §4

transplanted rice = assay: Test Example 1: preemergence treatment under submerged conditions, effect on crop; conditions: dose 2.52 g/a
In short: as §2

SMILES	A: barnyardgrass, herbicidal effect (evaluation scale 0-5) (barnyardgrass [1])	B: bulrush, herbicidal effect (evaluation scale 0-5) (bulrush [2])	C: ducksalad, herbicidal effect (evaluation scale 0-5) (ducksalad [3])	A: barnyardgrass, herbicidal effect (evaluation scale 0-5) (barnyardgrass [4])	B: bulrush, herbicidal effect (evaluation scale 0-5) (bulrush [5])	C: ducksalad, herbicidal effect (evaluation scale 0-5) (ducksalad [6])	A: barnyardgrass, herbicidal effect (evaluation scale 0-5) (barnyardgrass [7])	E: giant foxtail, herbicidal effect (evaluation scale 0-5) (giant foxtail [8])	G: water foxtail, herbicidal effect (evaluation scale 0-5) (water foxtail [9])	N: common chickweed, herbicidal effect (evaluation scale 0-5) (common chickweed [10])	O: beadstraw, herbicidal effect (evaluation scale 0-5) (beadstraw [11])	M: posumbu knotweed, herbicidal effect (evaluation scale 0-5) (posumbu knotweed [12])	I: velvetleaf, herbicidal effect (evaluation scale 0-5) (velvetleaf [13])	K: redroot pigweed, herbicidal effect (evaluation scale 0-5) (redroot pigweed [14])	J: common ragweed, herbicidal effect (evaluation scale 0-5) (common ragweed [15])	L: common lambsquater, herbicidal effect (evaluation scale 0-5) (common lambsquater [16])	D: large crabgrass, herbicidal effect (evaluation scale 0-5) (large crabgrass [17])	H: Italian ryegrass, herbicidal effect (evaluation scale 0-5) (Italian ryegrass [18])	A: barnyardgrass, herbicidal effect (barnyardgrass [19])	E: giant foxtail, herbicidal effect (giant foxtail [20])	also measured
CCOC(=O)N(c1ccccc1CN1COC(C)(c2cc(Cl)nn2C)CC1=O)S(=O)(=O)C(F)(F)F (centres unmarked) [II-60]	5 (mortality of 90% or above (nearly complete death))	5 (mortality of 90% or above (nearly complete death))	5 (mortality of 90% or above (nearly complete death))	5 (mortality of 90% or above (nearly complete death))	5 (mortality of 90% or above (nearly complete death))	5 (mortality of 90% or above (nearly complete death))	5 (mortality of 90% or above (nearly complete death))	5 (mortality of 90% or above (nearly complete death))	5 (mortality of 90% or above (nearly complete death))	4 (mortality of at least 70% and less than 90%)	0 (mortality of less than 5% (almost ineffective))	3 (mortality of at least 40% and less than 70%)	4 (mortality of at least 70% and less than 90%)	4 (mortality of at least 70% and less than 90%)	1 (mortality of at least 5% and less than 20%)	1 (mortality of at least 5% and less than 20%)	4 (mortality of at least 70% and less than 90%)	3 (mortality of at least 40% and less than 70%)	4 (mortality of at least 70% and less than 90%)	3 (mortality of at least 40% and less than 70%)	G: water foxtail, herbicidal effect (water foxtail [21]): 5 (mortality of 90% or above (nearly complete death)); N: common chickweed, herbicidal effect (common chickweed [22]): 4 (mortality of at least 70% and less than 90%); O: beadstraw, herbicidal effect (beadstraw [23]): 4 (mortality of at least 70% and less than 90%); M: posumbu knotweed, herbicidal effect (posumbu knotweed [24]): 2 (mortality of at least 20% and less than 40%); I: velvetleaf, herbicidal effect (velvetleaf [25]): 3 (mortality of at least 40% and less than 70%); K: redroot pigweed, herbicidal effect (redroot pigweed [26]): 0 (mortality of less than 5% (almost ineffective)); J: common ragweed, herbicidal effect (common ragweed [27]): 3 (mortality of at least 40% and less than 70%); L: common lambsquater, herbicidal effect (common lambsquater [28]): 2 (mortality of at least 20% and less than 40%); D: large crabgrass, herbicidal effect (large crabgrass [29]): 3 (mortality of at least 40% and less than 70%); H: Italian ryegrass, herbicidal effect (Italian ryegrass [30]): 3 (mortality of at least 40% and less than 70%); a: transplanted rice, effect on crop (evaluation scale 0-5) (transplanted rice): 0 (mortality of less than 5% (almost ineffective))
COCC1(C)CC(=O)N(Cc2ccccc2N(C(=O)OCC(C)C)S(=O)(=O)C(F)(F)F)CO1 (centres unmarked) [II-56]	5 (mortality of 90% or above (nearly complete death))	5 (mortality of 90% or above (nearly complete death))	5 (mortality of 90% or above (nearly complete death))	5 (mortality of 90% or above (nearly complete death))	5 (mortality of 90% or above (nearly complete death))	5 (mortality of 90% or above (nearly complete death))	5 (mortality of 90% or above (nearly complete death))	5 (mortality of 90% or above (nearly complete death))	5 (mortality of 90% or above (nearly complete death))	5 (mortality of 90% or above (nearly complete death))	0 (mortality of less than 5% (almost ineffective))	3 (mortality of at least 40% and less than 70%)	5 (mortality of 90% or above (nearly complete death))	2 (mortality of at least 20% and less than 40%)	4 (mortality of at least 70% and less than 90%)	3 (mortality of at least 40% and less than 70%)	4 (mortality of at least 70% and less than 90%)	5 (mortality of 90% or above (nearly complete death))	5 (mortality of 90% or above (nearly complete death))	4 (mortality of at least 70% and less than 90%)	G: water foxtail, herbicidal effect (water foxtail [21]): 5 (mortality of 90% or above (nearly complete death)); N: common chickweed, herbicidal effect (common chickweed [22]): 4 (mortality of at least 70% and less than 90%); O: beadstraw, herbicidal effect (beadstraw [23]): 3 (mortality of at least 40% and less than 70%); M: posumbu knotweed, herbicidal effect (posumbu knotweed [24]): 0 (mortality of less than 5% (almost ineffective)); I: velvetleaf, herbicidal effect (velvetleaf [25]): 5 (mortality of 90% or above (nearly complete death)); K: redroot pigweed, herbicidal effect (redroot pigweed [26]): 2 (mortality of at least 20% and less than 40%); J: common ragweed, herbicidal effect (common ragweed [27]): 4 (mortality of at least 70% and less than 90%); L: common lambsquater, herbicidal effect (common lambsquater [28]): 3 (mortality of at least 40% and less than 70%); D: large crabgrass, herbicidal effect (large crabgrass [29]): 0 (mortality of less than 5% (almost ineffective)); H: Italian ryegrass, herbicidal effect (Italian ryegrass [30]): 3 (mortality of at least 40% and less than 70%); a: transplanted rice, effect on crop (evaluation scale 0-5) (transplanted rice): 0 (mortality of less than 5% (almost ineffective))
